The values below come from patent US20100093678A1, “Compositions and methods of the treatment of obesity and osteoporosis” (THE UNIVERSITY OF GEORGIA RESEARCH FOUNDATION, INC, priority 2008, published 2010).

Where “and” joins values, the source holds several entries; their conditions need not be identical. Equal values may be shown once.

For data set [1], the system named is maturing 3T3-L1 preadipocytes. The data set is described as follows: Apoptosis assay (ApoStrand ssDNA ELISA) in maturing preadipocytes. The format is cell-based, mouse. To be noted: 0.5 nM 1,25(OH)2D3, 3.12 μM GS, alone or combined. As to the method:
(§1) 3T3-L1 mouse embryo fibroblasts were obtained from American Type Culture Collection (Manassas, Va.) and were cultured as described elsewhere. Briefly, cells were cultured in DMEM containing 10% bovine calf serum until confluent. Two days after confluence, the cells were stimulated to differentiate with DMEM containing 10% fetal bovine serum (FBS), 167 nM insulin, […], and 1 μM dexamethasone for 2 days. On day 2, differentiation medium was replaced with 10% FBS/DMEM containing 167 nM insulin and incubated for 2 days, followed by culturing with 10% FBS/DMEM for an additional 4 days, at which time >90% of cells were mature adipocytes with accumulated fat droplets. All media contained 1% penicillin streptomycin (10,000 U/ml) and 1% (v/v) 100 mM pyruvate. Cells were maintained at 37° C. in a humidified 5% CO2 atmosphere.
Apoptosis assay. For measuring the extent of apoptosis, the ApoStrand ELISA Apoptosis Detection Kit (Biomol, Plymouth Meeting, Pa.) was used. Cells were grown in 96-well plates and incubated with either vehicle or test reagents for the indicated time periods. Cells were then fixed and assayed as per the manufacturer's instructions. The assay selectively detects single-stranded DNA, which occurs in apoptotic cells but not in necrotic cells or cells with DNA breaks in the absence of apoptosis.
A general note: ELISA stands for enzyme-linked immunosorbent assay.

Data set [2] concerns maturing 3T3-L1 preadipocytes. The data set is described as follows: Quantification of lipid content (AdipoRed/Nile Red) in maturing preadipocytes. Conditions: 0.5 nM 1,25(OH)2D3 (D0.5), 3.12 μM GS (GS3.12), alone or combined; treated during adipogenic phase, measured day 6. The format is cell-based, mouse. The procedure: as §1
Lipid content was quantified using commercially available AdipoRed™ Assay Reagent. In brief, maturing adipocytes grown in 96-well plates were incubated with vehicle or test compounds during the adipogenic phase and on day 6, culture supernatant was removed and lipid content was quantified by performing AdipoRed™ assay as per the manufacturer's instructions. Treated cells were also stained with Oil Red O and hematoxylin as described by Suryawan and Hu to visualize the lipid content. […]

The test system of data set [3] is human mesenchymal stem cells (hMSC). The data set is described as follows: Osteogenic differentiation of hMSC (ALP activity, calcium deposition, Alizarin red S). To be noted: for alp activity: FIG. 8D, osteogenic conditions; for osteogenesis: hMSC cultured under osteogenic conditions; for increased calcium deposition: pretreatment, day 17, XN 5 μM, cGS varying doses. The format is cell-based. The procedure: Alkaline phosphatase activity (ALP/protein) was measured on day 8. Means that are not denoted with a common letter are different (p<0.001).
(§2) In these further examples, post confluent hMSC were treated with varying doses of cGS or XN in adipogenic induction medium, and lipid deposition and cell viability were measured. Alternatively, pre-confluent hMSC were pre-treated with varying doses of cGS or XN for 3 days prior to addition of osteogenic induction medium. Alkaline phosphatase (ALP) activity was determined 3 days post-induction and indices of mineralization (calcium deposition and Alizarin red S stain) were determined 14-28 days post-induction. […] Inhibition was dose-dependent with ˜50% inhibition observed with 6.5 μM cGS and 0.75 μM XN, respectively. Pretreatment with cGS stimulated osteogenic differentiation in hMSC cultures as indicated by increased ALP activity at day 3 (˜10%; P<0.05) and calcium deposition at day 17 (˜35-60%; P<0.05). Pretreatment with 5 μM XN increased calcium deposition (33%; P<0.05) at day 17.

For data set [4], the system named is C/EBPα. The data set is described as follows: Western blot, C/EBPα expression in maturing 3T3-L1 preadipocytes. The format is cell-based, mouse. To be noted: 0.5 nM 1,25(OH)2D3, 3.12 μM GS, alone or combined; days 0-6; vs control. The procedure: (§3) The protein concentration was determined by BCA assay with bovine serum albumin as the standard. Western blot analysis was performed using the commercial NUPAGE system (Novex/Invitrogen), in which a lithium dodecyl sulfate sample buffer (Tris/glycerol buffer, pH 8.5) was mixed with fresh dithiothreitol and added to samples.
(§4) Measurement of signal intensity on PVDF membranes after Western blotting with various antibodies was performed using a Fluor Chem densitomer with the Alpha-EaseFC image processing and analysis software (Alpha Innotech Corp.). For statistical analysis, all data were expressed as integrated density values (IDV), which were calculated as the density values of the specific protein bands/b-actin density values and expressed as percentage of the control. All figures showing quantitative analysis include data from at least three independent experiments.
On the technique in general: Immunoblotting shows a protein as a band on a membrane.

The subject of data set [5] is PPARγ. The data set is described as follows: Western blot, PPARγ expression in maturing 3T3-L1 preadipocytes. The format is cell-based, mouse. Conditions: 0.5 nM 1,25(OH)2D3, 3.12 μM GS, alone or combined; days 0-6; vs control. The procedure:
as §3, §4

Data set [6] relates to aP2. The data set is described as follows: Western blot, aP2 expression in maturing 3T3-L1 preadipocytes. The format is cell-based, mouse. To be noted: 0.5 nM 1,25(OH)2D3, 3.12 μM GS, alone or combined; days 0-6; vs control. The procedure:
as §3, §4

The subject of data set [7] is FXR. The data set is described as follows: Western blot, FXR expression in maturing 3T3-L1 preadipocytes. To be noted: for increase in FXR levels: 3.12 μM GS. Type of data set: cell-based, mouse. The procedure:
as §3, §4

Data set [8] has as its system VDR. The data set is described as follows: Western blot, VDR expression in maturing 3T3-L1 preadipocytes. Type of data set: cell-based, mouse. Conditions: any time point (day 1, 4, 6); 3.12 μM GS. As to the method:
as §3, §4

For data set [9], the system named is human mesenchymal stem cells (hMSC). The data set is described as follows: Cell viability in hMSC osteogenic cultures. Type of data set: cell-based. To be noted: osteogenic conditions; varying doses of cGS; XN 20 μM. As to the method: (§5) In these further examples, post confluent hMSC were treated with varying doses of cGS or XN in adipogenic induction medium, and lipid deposition and cell viability were measured. Alternatively, pre-confluent hMSC were pre-treated with varying doses of cGS or XN for 3 days prior to addition of osteogenic induction medium. Alkaline phosphatase (ALP) activity was determined 3 days post-induction and indices of mineralization (calcium deposition and Alizarin red S stain) were determined 14-28 days post-induction. […] P<0.05). Pretreatment with 5 μM XN increased calcium deposition (33%; P<0.05) at day 17.

Data set [10] has as its system PPARs. Conditions: reference [20]; cited from earlier work.
In data set [11] the test system is maturing 3T3-L1 preadipocytes. The data set is described as follows: Cell viability assay (CellTiter 96) in maturing preadipocytes. Conditions: 0.5 nM 1,25(OH)2D3, 3.12 μM GS, alone or combined; 6 days during adipogenesis. Type of data set: cell-based, mouse. As to the method: as §1
Tests were performed in 96-well plates. Two day postconfluent preadipocytes were treated with differentiation medium containing either vehicle or test compounds for 6 days during adipogenesis. On day 6 the treatment medium was removed and the cell viability assay was performed as per the manufacturer's instructions. The absorbance was measured at 490 nm in a plate reader (μQuant Bio-Tek Instruments, Winooski, Vt.) to determine the formazan concentration, which is proportional to the number of live cells.

The test system of data set [12] is human mesenchymal stem cells (hMSC). The data set is described as follows: Cell viability in hMSC adipogenic cultures. The format is cell-based. Conditions: adipogenic conditions; varying doses of cGS; XN 1.5-12 μM. As to the method:
as §5

The test system is the same in data set [13]. The data set is described as follows: Lipid deposition / adipogenesis in hMSC under adipogenic conditions. Conditions: for adipogenesis (lipid accumulation): hMSC cultured under adipogenic conditions. Type of data set: cell-based. The procedure: Cells were cultured in adipogenic induction medium and treated with control or the combination of R+Q+G (15 μM each). After 18 days adipogenesis was measured and expressed as % control. […] Means that are not denoted with a common letter are different p<0.05.
as §2

Regarding `C=C1/C(=C\C=C2/CCC[C@]3(C)[C@@H]([C@H](C)CCCC(C)(C)O)CC[C@@H]23)C[C@@H](O)C[C@@H]1O` [1,25(OH)2D3, 1,25-dihydroxy vitamin D3, reference compound], the increase in apoptosis in data set [1] was determined as 18.4±2.3%. Further, the “decrease in lipid accumulation” value in data set [2] was 29.3±3.4%. Besides, the alp activity entry in [3] is recorded as “significantly increased alp activity”. Besides, the “decrease in expression of C/EBPα” value in data set [4] was 46.3±3.4% and 46%. Also, in data set [5], the “decrease in expression of PPARγ” value was 46.2±4.4% and 46%. Besides, the “decrease in expression of aP2” value in data set [6] is recorded as 27.2±4.8%. Further, the “effect on FXR levels” value in data set [7] (any time point, 0.5 nM 1,25(OH)2D3) is given as “no effect”.
Regarding `C/C=C1\C(=O)C[C@H]2[C@@H]3CCC4=CC(=O)CC[C@]4(C)[C@H]3CC[C@]12C` [GS, cis-Guggulsterone], the increase in apoptosis result in data set [1] is listed as “did not have any significant effect”. The “effect on VDR expression” value in [8] is given as “did not significantly alter”. Also, the “cell number (viability)” value in data set [9] and in data set [12] was “dose-dependent increase” in each case. Besides, the “decrease in lipid accumulation” value in data set [2] worked out at 29.7±2.7%. Further, the “interaction with PPARs” value in data set [10] was “did not interact”. Moreover, in data set [11], the “decrease in cell viability” value is “did not have any significant effect”. Further, the osteogenesis entry in data set [3] is listed as “promoted osteogenesis”. For the same compound, the “increased ALP activity” value in data set [3] (pretreatment 3 days before osteogenic induction, day 3 post-induction) was ~10%. For the same compound, the increased calcium deposition in data set [3] was 35-60%. For the same compound, the “decrease in expression of C/EBPα” value in data set [4] is “did not significantly alter”. Also, in data set [5], the “decrease in expression of PPARγ” value is on record as “did not significantly alter”. Further, the “decrease in expression of aP2” value in [6] is given as “did not significantly alter”. Also, in data set [7] (day 1, 3.12 μM GS alone or with 0.5 nM 1,25(OH)2D3), the “effect on FXR expression” value is “did not have any significant effect”. Also, the “increase in FXR levels” value in [7] (day 4) stood at 30.6±9.3%; in data set [7] (day 6) it was 64.8±10%. The “inhibition of lipid deposition” value in data set [13] (6.5 μM cGS, 0.75 μM XN, adipogenic conditions) was ~50%. For the same compound, the “adipogenesis (lipid accumulation)” value in data set [13] is “reduced adipogenesis”.
Take `COc1cc(O)c(CC=C(C)C)c(O)c1C(=O)/C=C/c1ccc(O)cc1` [XN, xanthohumol]: in data set [9], the “cell number (viability)” value was “decreased viability”. Moreover, in data set [3], the osteogenesis result is “promoted osteogenesis” and the increased calcium deposition stood at 33%. Moreover, the “cell number (viability)” value in data set [12] was “increased cell viability dose-dependently”. The inhibition at 0.75 µM in data set [13] (Homo sapiens, Mesenchymal stem cells, 6.5 μM cGS, 0.75 μM XN, adipogenic conditions) is ~50%. The “adipogenesis (lipid accumulation)” value in data set [13] is given as “reduced adipogenesis”.
On to `O=c1c(-c2ccc(O)cc2)coc2cc(O)cc(O)c12` [genistein, 5,7-Dihydroxy-3-(4-hydroxyphenyl)chromen-4-one], for which, in [3], the alp activity result is “significantly increased alp activity” and the osteogenesis result was “promoted osteogenesis”.
On to `O=c1c(O)c(-c2ccc(O)c(O)c2)oc2cc(O)cc(O)c12` [quercetin, 2-(3,4-dihydroxyphenyl)-3,5,7-trihydroxy-4H-chromen-4-one], for which, in data set [3], the osteogenesis result is recorded as “promoted osteogenesis”. Moreover, in data set [13], the “adipogenesis (lipid accumulation)” value is “reduced adipogenesis”.
On to vitamin D [reference compound], for which, in [3], the osteogenesis entry is “promoted osteogenesis”.

One may read the inhibition as the percentage by which the read-out fell short of the control.
